Results: patent US5260275A, “Hypoglycemics” (Amylin Pharmaceuticals, Inc., priority 1990, dated 1993)

Columns and labels:
HIT T-15 cells [1] = assay: Amylin/insulin (A/I) secretion ratio of HIT T-15 cells; format: cell-based, hamster
Protocol: (§1) HIT T-15 cells (HIT cells; American Type Tissue Collection, Rockville, Md.) were subcultured weekly in Ham's F-12 medium (Irvine Scientific, Santa Ana, Calif.) containing 10% horse serum (Gemini Bioproducts, Calabasas, Calif.), 2.5% fetal bovine serum (FBS; Gemini), 2 mM L-glutamine, 10^5 IU penicillin G/1, 100 mg streptomycin/1 and 10.0 mM glucose. Cells were maintained at 37° C. and 5% C02/ 95% humidified air and medium was replaced every 2 to 3 days. All experiments were performed with cells from passages 62 to 71.
Five days before each secretion study, cells were subcultured at 0.26×10^6 cells per 0.8 ml medium per well in 24-well tissue culture plates. Medium was replaced on day 3. On day 5 cells were washed twice with […] 1.0 ml Krebs-Ringer buffer (KRB) containing 119 mM NaCl, 4.74 mM KCl, 2.54 mM CaCl2, 1.19 mM KH2 PO4, 25 mM NaHCO3, 10 mM HEPES and 0.1% protease-free bovine serum albumin (Cohn fraction V; Sigma Chemical Co., St. Louis Mo.) at pH 7.4. After washing 1.0 ml KRB was added and plates were incubated for 30 minutes at 37° C. in equilibrium with air. […] After a 60 minute incubation with test substance, supernatants were centrifuged to remove cell debris, then stored at -20° C. Supernatants were analyzed for insulin and amylin content by radioimmunoassay within one week of collection. Three wells per plate were trypsinized and cells per well were quantitated using a Coulter Counter (Model Zf, Coulter Electronics, Hialeah, Fla.). Data are expressed as the percentage change in pmoles of hormone released/10^6 cells, relative to controls (absence of test substance) or as the moles of amylin released/mole of insulin/10^6 cells/hour (A/I ratio).
Immunoreactive insulin content in supernatants was measured using a commercial radioimmunoassay (IM.78; Amersham, Arlington Heights, Ill.). Human insulin standards were prepared in KRB. […] The radioimmunoassay for immunoreactive amylin was as described in Example 7 above.

HIT T-15 cells [2] = assay: Amylin release from HIT T-15 cells; format: cell-based, hamster
Protocol: (§2) HIT T-15 cells (HIT cells; American Type Tissue Collection, Rockville, MD; R. F. Santerre, et al. (1981) Proc. Nat. Acad. Sci. USA 78, 4339-4343.) were subcultured weekly in Ham's F-12 medium (Irvine Scientific, Santa Ana, Calif.) containing 10% horse serum (Gemini Bioproducts, Calabasas, Calif.), 2.5% fetal bovine serum (FBS; Gemini), 2 mM L-glutamine, and 10.0 mM glucose. Cells were maintained at 37° C. and 5% CO2 / 95% humidified air and medium was replaced every 2 to 3 days. All experiments were performed with cells from passages 66 to 71.
(§3) Amylin and insulin secretion were measured using reagents of analytical grade unless otherwise indicated. The secretion medium was a Krebs-Ringer buffer (KRB) containing 119 mM NaCl, 4.74 mM KCl, 2,54 mM CaCl2, 1.19 mM MgSO4, 1.19 mM KH2 PO4, 25 mM NaHCO3, 10 mM HEPES and 0.1% protease-free bovine serum albumin (Cohn fraction V; Sigma Chemical Co., St. Louis Mo.) at pH 7.4. Glibenclamide (Sigma) was initially dissolved in ethanol (50 mg/ml) then diluted to working concentrations in KRB. […] Tolbutamide (Sigma) was initially dissolved in dimethylsulfoxide (50 mg/ml). […] Metformin (Sigma) was diluted in KRB.
(§4) Five days before each secretion study cells were subcultured at 0.26×10^6 cells/0.8 ml medium/well in 24-well tissue culture plates (Corning Glass Works, Corning N.Y.). Medium was replaced on day 3. On day 5 cells were washed twice with 1.0 ml KRB then incubated in 1.0 ml KRB (30 minutes, 37° C.) in equilibrium with air. Cells were washed twice more prior to addition of 0.5 ml KRB containing the indicated concentrations of glucose, metformin, tolbutamide and glibenclamide. After a 60 minute incubation with test substance or substances, supernatants were centrifuged (5 minutes, 500×g, 5° C.; GPKR centrifuge, Beckman Instruments, Inc., Palo Alto, Calif.) to remove cell debris, then stored in polypropylene micro test tubes (Brinkman Instrument Co., Westbury, N.Y.) at -20° C. until analyzed by radioimmunoassay. Supernatants were analyzed for insulin and amylin content within one week of collection. Three wells per plate were randomly selected for cell quantitation. Cells were incubated with 75 μg trypsin and 30 μg EDTA in 150 μl normal saline (8 minutes, 37° C.), then counted on a Coulter Counter (Model Zf, Coulter Electronics, Hialeah, Fla.).
(§5) Immunoreactive insulin content in supernatants was measured using a commercial radioimmunoassay (IM.78; Amersham, Arlington Heights, Ill.). […] The radioimmunoassay for immunoreactive amylin was as follows. Assay diluent was phosphate-buffered saline (PBS; 137 mM NaCl, 2.68 mM KCl, 1.47 mM KH2 PO4, 6.65 mM Na2 HPO4) containing 0.1% Triton-X 100 (v/v), 0.01% NaN3 (w/v), and 0.1% gelatin (v/v; teleostean, 45% aqueous solution, Sigma) at pH 7.4. All incubations were performed at 4° C. ^125 I-[Tyr 37]-human synthetic amylin tracer was iodinated by the chloramine-T method and purified on a C18 Sep-Pak (Waters Associates, Milford, Mass.). Specific activity was approximately 500 μCi/μg.
Standards and unknowns were run in triplicate or duplicate respectively. After an 18 hour incubation, 100 μl of tracer containing 20,000 dpm was added and samples were incubated an additional 18 hours. To ensure complete immunoprecipitation of amylin:antibody complexes, 100 μl of rabbit gamma globulin (0.35 mg/ml, Scantibodies Laboratory, Santee, Calif.) and 100 μl of goat anti-rabbit gamma globulin (0.50 mg/ml, purified grade; Scantibodies) were added. After a 15 minute incubation, 1.0 ml 2% polyethylene glycol (w/v. MW 8,000; Sigma) in assay buffer was added and samples were centrifuged (30 minutes, 1500×g, 5° C.). Samples were decanted and pellets were counted on a gamma counter (model 1277; LKB Wallac, Turku, Finland).
Data in FIGS. 3 and 4 are shown as the mean±S.D. of 4 replicate samples.

HIT T-15 cells [3] = assay: Insulin release from HIT T-15 cells; format: cell-based, hamster
Protocol: as §2, §3, §4, §5
Data in FIGS. 3 and 4 are shown as the mean±S.D. of 4 replicate samples. An unpaired Student's t-test was used to compare secretion in the absence and presence of hypoglycemic agent (Statview 512+ program; Brain Power, Inc., Calabasas, Calif.).
as §1

[4] = test system: isolated rat islets of Langerhans; assay: Glucose-stimulated insulin secretion from isolated rat islets of Langerhans; format: cell-based; conditions: substance 650 nmol/L; glucose 10 mmol/L
Protocol: The following experiments illustrate the fact that subpeptides of amylin can act to reduce the amount of insulin produced by isolated islets of Langerhans in response to a standard glucose challenge. Similar results have been obtained using whole amylin. All experiments were performed by known methods used in experimental practice. See, e.g., Lacey P. E., and Kostianovsky M., Method for the Isolation of Intact Islets of Lanaerhans from the Rat Pancreas. Diabetes 1967; 16:35-39.
Briefly, rats were killed, and islets of Langerhans were isolated from their pancreases. Experiments were performed either with freshly isolated islets or after overnight incubation of islets (23 h) in standard culture medium and conditions at 37° C. Synthetic amylin peptide 27-37 or synthetic calcitonin gene related peptide (CGRP) was dissolved in a 1.0 mmol/L citric acid/sodium citrate buffer, pH 3.0, and the concentration of the amylin 27-37 was verified by quantitative amino acid analysis. See, e.g., Cooper G. J. S. et al., Proc Natl Acad Sci USA 1987; 84:8628-8632. […] Stimulation of islets was carried out at the standard stimulatory glucose concentration of 10 mmol/L.
Production of insulin is expressed as μU/islet/h. All experiments were performed with five replicates per point. The integrity of the islet response was assessed by comparing the responses after stimulation of different aliquots of islets by two and ten mmol/L glucose, respectively, and the strength of the inhibitory response was judged against that induced by 1 μg/ml (650 nmol/L) somatostatin. Somatostatin is a 14 amino acid peptide which is a known, potent inhibitor of the insulin secretory response of islet B-cells to glucose. Arimura A. Biomed res1981; 2:233-257. […] Petterson M., Ahren B., Bottcher G., Sundler F., Endocrinology 1986; 119:865-869.
The results are shown in TABLE 5 below and all results are expressed as standard error of the mean (s.e.m.). The significance of differences between the means of groups is assessed by the t-test. The result of stimulation by 10 mmol/L glucose is compared with the results of stimulation at 2 mmol/L glucose. In all other experimental conditions, the significance of the inhibitory effect is measured against the effect of 10 mmol/L glucose alone.

[5] = biological target: T1, insulin receptor on red blood cells (Homo sapiens, UniProt P06213); assay: Displacement of insulin from its receptor on red blood cells; format: binding
T1 construct: endogenous in cells; host or cells: red blood cells

[6] = cells challenged with 10 mM glucose plus 15 mM arginine
[7] = 10 mM glucose or 15 mM arginine alone or in combination, n=3

For `C[C@H](N)C(=O)NCC(=O)N[C@H]1CSSC[C@@H](C(=O)O)NC(=O)[C@H](CO)NC(=O)[C@H]([C@@H](C)O)NC(=O)[C@H](Cc2ccccc2)NC(=O)[C@H]([C@@H](C)O)NC(=O)[C@H](CCCCN)NC(=O)[C@H](Cc2c[nH]c3ccccc23)NC(=O)[C@H](Cc2ccccc2)NC(=O)[C@H](Cc2ccccc2)NC(=O)[C@H](CC(N)=O)NC(=O)[C@H](CCCCN)NC1=O` [Somatostatin], the A/I ratio (HIT T-15 cells [1]; over the somatostatin concentration range tested, 10 mM glucose plus 15 mM arginine) was 0.36±0.02, the “Effect on amylin release (in words)” value (HIT T-15 cells [2]; [6]) was “suppressed both amylin and insulin release” and the “Effect on insulin release (in words)” value (HIT T-15 cells [3]; [6]) was “suppressed both amylin and insulin release”. For the same molecule, the Insulin production [4] was 44 μU/islet/hr and the “Relative insulin secretion inhibition (percentage by which insulin production is reduced from control)” value [4] was 45%.

In the case of `O=C[C@H](O)[C@@H](O)[C@H](O)[C@H](O)CO` [glucose], the A/I ratio (HIT T-15 cells [1]; [7]) is reported as 0.32±0.01, the “Increase in secretion of amylin” value (HIT T-15 cells [2]; 10 mM glucose, control conditions) is reported as 2.5 to 4 fold and the “Concentration of maximum amylin secretion” value (HIT T-15 cells [2]; 60 min incubation) is reported as 20 mM. The EC50 (HIT T-15 cells [2]; Mesocricetus auratus, HIT-T15, 1 h, 60 min incubation, read-out: Half-maximal response (EC50), amylin secretion) was roughly 2000 µM, the “Increase in insulin secretion” value (HIT T-15 cells [3]; 10 mM glucose, control (no drug) conditions) was 4 to 5 fold and the “Concentration of maximum insulin secretion” value (HIT T-15 cells [3]; 60 min incubation) was 20 mM. For the same molecule, the EC50 (HIT T-15 cells [3]; Mesocricetus auratus, HIT-T15, 1 h, 60 min incubation, read-out: Half-maximal response (EC50), insulin secretion) was roughly 2000 µM.

In the case of “amylin: 37-residue peptide hormone from pancreatic amyloid; preparation not specified at this place (KCNTATCATQRLANFLVHSSNNFGAILSSTNVGSNTY; Islet amyloid polypeptide; UniProt P10997 34-70, looked up)”, the “Displacement of insulin from its receptor (in words)” value [5] is reported as “not capable of significantly displacing insulin”.

`N=C(N)NCCC[C@H](N)C(=O)O` [arginine] was tested, and the A/I ratio (HIT T-15 cells [1]; [7]) was 0.41±0.05, the “Mean A/I ratio” value (HIT T-15 cells [1]; over the arginine concentration range tested) was 0.44±0.02 and the “Effect on amylin secretion (in words)” value (HIT T-15 cells [2]; increasing arginine, 60 min) was “stimulated amylin and insulin secretion in a dose-dependent manner”. For the same molecule, the “Effect on insulin secretion (in words)” value (HIT T-15 cells [3]; increasing arginine, 60 min) was “stimulated amylin and insulin secretion in a dose-dependent manner”.
